Two molecules from patent US20160318856A1, “Substituted Urea eIF2alpha Kinase Activators” (THE BRIGHAM AND WOMEN'S HOSPITAL, INC., priority 2013, published 2016) can be followed below.

Usually IC50 stands for the concentration at which inhibition is half-maximal.

The subject of experiment [1] is CRL-2813 human melanoma cancer cells transfected with HRI-targeting or non-targeting siRNA. Briefly: cell proliferation (SRB) assay after HRI knockdown. The class given is cell-based. The following applies: CRL-2813 cells, FIG. 10. The method, then:
(§1) Cells were seeded in 96-well plates and maintained for 5 days in the presence of 0.5 to 20 μM of individual compound, and cell proliferation was measured by the sulforhodamine B (SRB) assay as described previously (see, for example, Palakurthi, S. S. et al. Cancer Research 2000, 60(11), 2919-2925). Briefly, at the end of a 5-day treatment, cells were fixed in 10% cold trichloroacetic acid. Cell number was estimated by measuring the remaining bound dye of sulforhodamine B after washing. The percentage of growth was calculated by using the equation: 100×[(T−T0)/(C−T0)], where T and C represent the absorbance in treated and control cultures at Day 5, and T0 at time zero, respectively. If T is less than T0, cell death has occurred and can be calculated from 100×[(T−T0)/T0].
Cell proliferation is a meaningful read-out for determining the specificity of a compound as it captures both on-target and off-target effects of the compound under study. […] If these compounds specifically activate HRI and this activity is required for the inhibition of cell proliferation, then reducing the expression of HRI should blunt their effect on cell proliferation. For this purpose, expression of HRI was knocked down in CRL-2813 human melanoma (about 70% knockdown efficiency) and MCF-7 human breast cancer cells (about 90% knockdown efficiency). These two cell lines were chosen because the HRI knockdown efficiency is lower in CRL-2813 than in MCF-7 cells providing a sort of dose-response data that correlates knockdown efficiency with the resistance of cells to inhibition of cell proliferation. […] Referring to FIG. 5A, CRL-2813 human melanoma cancer cells, and (FIG. 5B) MCF-7 human breast cancer cells were transfected with HRI targeted or non-targeted siRNA, treated with the indicated concentrations of I-6p and cell proliferation was measured by SRB assay. Calculated IC50 for all four compounds tested in CRL-2813 human melanoma cancer cells and MCF-7 human breast cancer cells transfected with non-target siRNA control (NTC) or HRI is shown in FIG. 5C and FIG. 5D, respectively. The experiment was conducted in triplicate and each experiment was independently performed three times. Data are shown as Mean±S.E.M. *NTC=non-target siRNA control.
Referring to FIG. 8, CRL-2813 human melanoma cancer cells were transfected with HRI targeted or non-targeted siRNA, treated with the indicated concentrations of (A) I-14, (B) I-15, (C) III-4 and (D) III-5 and cell proliferation was measured by SRB assay. Calculated IC50 for all four compounds tested in CRL-2813 human melanoma cancer cells transfected with non-target siRNA control (NTC) or HRI is shown in (E). The experiment was conducted in triplicate and each experiment was independently performed three times. Data are shown as Mean±S.E.M. *NTC=non-target siRNA control, IC50=effective dose of drug that inhibit cell proliferation by 50%.
In general, if the affinity of compounds for their molecular target is increased this should result in higher specificity of the compounds in the cell proliferation assay. […] These five compounds, two with average and three with high potency, were tested in cell proliferation assay using CRL-2813 cells transfected with non-targeted siRNA or HRI-targeted siRNA as described above.

Another experiment concerns NIH/3T3 fibroblast cells. Briefly: cell proliferation (SRB) assay, NIH/3T3. It counts as cell-based. The following applies: for IC50: Mus musculus, NIH3T3, NIH/3T3, Table 8, Mean IC50±S.E.M., read-out: IC50 of compounds. The method, then: as §1
The experiments were conducted in triplicate, and each experiment was independently performed three times. IC50=effective dose of drug that inhibit cell proliferation by 50%. Data are shown as Mean±S.E.M.
Compounds I-6p, I-17, I-18 and I-20 were tested in NIH/3T3 fibroblast and CRL-2813 melanoma cancer cells in cell proliferation assay. The experiment was conducted in triplicate and each experiment was independently performed three times. Data are shown as Mean IC50±S.E.M.

In experiment [2] the test system is eIF2α phosphorylation (eIF2•GTP•Met-tRNAi ternary complex; HRI activation). Briefly: surrogate dual luciferase eIF2α phosphorylation (ternary complex) assay. The class given is cell-based, human. The following applies: Homo sapiens; surrogate eIF2α phosphorylation assay, Table 3; read-out: Emax (F/R). In a few lines:
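Cell-based dual luciferase reporter: firefly luciferase behind the ATF-4 5′UTR (uORFs) and renilla luciferase behind a uORF-free 5′UTR, read with a dual glow kit. Activity given as firefly/renilla ratio normalised to DMSO wells set at 1, with a rising ratio reflecting reduced ternary complex (e.g., HRI activation).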

Experiment [3] deals with CRL-2813 human melanoma cancer cells. Briefly: cell proliferation (SRB) assay, CRL-2813. The class given is cell-based. Conditions: Homo sapiens, CRL2813. In a few lines:
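Cells exposed 5 days to 0.5–20 μM compound, then TCA-fixed and stained with sulforhodamine B. Growth as 100×[(T−T0)/(C−T0)] from absorbance of treated, control and time-zero cultures; cell death as 100×[(T−T0)/T0] where T is below T0.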

[4] abbreviates: CRL-2813, Table 8, Mean IC50±S.E.M., read-out: IC50 of compounds.
Setting [5] is: cell proliferation assay, Table 3, cell line not named, values equal CRL-2813 values of Table 8, read-out: IC50.

Read-outs that look alike come from different tables or passages of the source.

As for `O=C(Nc1cccc(C(F)(F)F)c1)NC1CCC(Oc2ccc(C(F)(F)F)cc2)CC1` (centres unmarked) [Compound I-18, 1-(4-(4-(Trifluoromethyl)phenoxy)cyclohexyl)-3-(3-(trifluoromethyl)phenyl)urea], in experiment [1], the “fold higher IC50 values in cells transfected with HRI-targeting siRNA vs. non-targeting siRNA” value is listed as about 7.5 fold. Besides, the “fold higher potency on cancer cells compared to non-transformed cells” value in the experiment on NIH/3T3 fibroblast cells (CRL-2813 human melanoma vs NIH-3T3 fibroblast) is “highest discrimination between cancer and non-cancerous cells”. For the same molecule, the IC50 is 3400 ± 100 nM in the experiment with NIH/3T3 fibroblast cells, 460 ± 100 nM in experiment [3] (setting [4]) and 460 ± 100 nM in experiment [3] (setting [5]). In addition, in experiment [2], the maximal fold induction turned out to be 25.1.
With `O=C(Nc1cccc(C(F)(F)F)c1)NC1CCC(Oc2cccc(C(F)(F)F)c2)CC1` (centres unmarked) [Compound I-20, 1-(4-(3-(Trifluoromethyl)phenoxy)cyclohexyl)-3-(3-(trifluoromethyl)phenyl)urea], the “fold higher IC50 values in cells transfected with HRI-targeting siRNA vs. non-targeting siRNA” value in experiment [1] is given as about 5 fold. For the same molecule, the figures for the IC50 (in the experiment with NIH/3T3 fibroblast cells; in experiment [3] (setting [4]); in experiment [3] (setting [5])) were 3300 ± 200 nM, 1300 ± 100 nM and 1300 ± 100 nM, respectively. Further, the maximal fold induction in experiment [2] was found to be 26.
